Test results published in article PMC3685705, “Antimicrobial and antiurease activities of newly synthesized morpholine derivatives containing an azole nucleus” (Medicinal Chemistry Research, 2012).
Converted amounts (≈) assume the structure as drawn. Where two headings read alike, the source gives them in different places.

Columns and labels:
[1] = system: Mycobacterium smegmatis ATCC 607; test: Antimicrobial activity, broth double microdilution MIC; assay type: cell-based; details: Mycolicibacterium smegmatis
urease = urease (Canavalia ensiformis, UniProt P07374); test: Urease inhibitory activity (Van Slyke and Archibald)
S. cerevisiae RSKK 251 = test: Antifungal activity, broth double microdilution MIC; assay type: cell-based; details: Saccharomyces cerevisiae
[2] = system: Escherichia coli ATCC 25922; test: Antimicrobial activity, broth double microdilution MIC; assay type: cell-based; details: ATCC25922, pH 7.3, read-out: minimal inhibition concentration, Ec
[3] = system: Enterococcus faecalis ATCC 29212; test: as above; assay type: cell-based; details: ATCC29212, Mueller–Hinton broth pH 7.3, 18–24 h at 35 °C, – = no activity, read-out: minimal inhibition concentration, Ef
[4] = system: Staphylococcus aureus ATCC 25923; test: as above; assay type: cell-based; details: ATCC25923, Mueller–Hinton broth pH 7.3, 18–24 h at 35 °C, – = no activity, read-out: minimal inhibition concentration, Sa
[5] = system: Candida albicans ATCC 60193; test: Antifungal activity, broth double microdilution MIC; assay type: cell-based
all the microorganisms = test: Antimicrobial activity in vitro, whole panel; assay type: cell-based; details: result in words
[6] = system: Pseudomonas aeruginosa ATCC 43288; test: Antimicrobial activity, broth double microdilution MIC; assay type: cell-based; details: ATCC43288, Mueller–Hinton broth pH 7.3, 18–24 h at 35 °C, – = no activity, read-out: minimal inhibition concentration, Pa
Bacillus cereus 702 Roma = test: as above; assay type: cell-based; details: pH 7.3, read-out: minimal inhibition concentration, Bc
[7] = system: Yersinia pseudotuberculosis ATCC 911; test: microbe, parasite or virus in culture; assay type: cell-based; details: ATCC911, pH 7.3, read-out: minimal inhibition concentration, Yp
[8] = RSKK251, pH 7, read-out: minimal inhibition concentration, Sc
[9] = Candida albicans, ATCC60193, pH 7, read-out: minimal inhibition concentration, Ca
[10] = ATCC607, read-out: minimal inhibition concentration, Ms

Chain of urease (P07374 whole entry, looked up): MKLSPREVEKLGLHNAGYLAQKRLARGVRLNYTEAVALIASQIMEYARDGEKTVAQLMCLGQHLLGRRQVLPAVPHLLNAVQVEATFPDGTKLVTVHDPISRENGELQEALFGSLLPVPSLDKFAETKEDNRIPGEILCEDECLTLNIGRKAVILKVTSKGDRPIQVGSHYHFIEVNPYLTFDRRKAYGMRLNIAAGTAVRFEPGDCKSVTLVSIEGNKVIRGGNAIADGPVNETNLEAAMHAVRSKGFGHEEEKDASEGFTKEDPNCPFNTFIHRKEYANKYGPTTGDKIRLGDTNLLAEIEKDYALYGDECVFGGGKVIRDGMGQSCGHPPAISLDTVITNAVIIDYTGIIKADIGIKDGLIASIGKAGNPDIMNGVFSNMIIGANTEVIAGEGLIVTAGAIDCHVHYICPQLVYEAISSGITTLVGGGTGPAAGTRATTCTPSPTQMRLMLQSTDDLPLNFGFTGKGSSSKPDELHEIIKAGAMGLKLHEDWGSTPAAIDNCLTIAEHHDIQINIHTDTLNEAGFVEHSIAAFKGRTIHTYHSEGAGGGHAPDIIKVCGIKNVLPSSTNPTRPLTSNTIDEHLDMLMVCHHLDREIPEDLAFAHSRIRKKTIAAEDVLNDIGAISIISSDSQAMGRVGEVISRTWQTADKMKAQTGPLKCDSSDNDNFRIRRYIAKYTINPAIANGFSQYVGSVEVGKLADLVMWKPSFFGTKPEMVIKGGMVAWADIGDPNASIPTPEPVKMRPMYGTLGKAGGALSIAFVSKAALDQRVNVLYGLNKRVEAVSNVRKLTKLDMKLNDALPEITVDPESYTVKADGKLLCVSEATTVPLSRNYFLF

Row | Structure (SMILES) | IC50 (urease) | MIC (S. cerevisiae RSKK 251; [8]) | MIC [5, 9] | MIC [1, 10] | melting point | further results
1 | CN[C@@H]1[C@H](O[C@H]2[C@H](O[C@H]3[C@H](O)[C@@H](O)[C@H](N=C(N)N)[C@@H](O)[C@@H]3N=C(N)N)O[C@@H](C)[C@]2(O)C=O)O[C@@H](CO)[C@H](O)[C@H]1O [Str., Streptomisin, reference compound] |  |  |  |  |  | MIC ([1]; ATCC607, Mycobacterium smegmatis ATCC 607, Brain Heart Infusion broth, 48–72 h at 35 °C, – = no activity, read-out: minimal inhibition concentration, Ms): 4 µg/mL (≈ 6.88 µM)
2 | S=c1oc(CNc2ccc(N3CCOCC3)nc2)nn1CN1CCN(c2ccccc2)CC1 [Compound 8, 5-{[(6-Morpholin-4-ylpyridin-3-yl)amino]methyl}-3-[(4-phenylpiperazin-1-yl)methyl]-1,3,4-oxadiazole-2(3H)-thione] | 4.99 ± 0.59 µM | 1000 µg/mL (≈ 2140 µM) | 1000 µg/mL (≈ 2140 µM) | 125 µg/mL (≈ 267 µM) | 87 to 88 °C | MIC [2]: 62.5 µg/mL (≈ 134 µM); MIC [3]: 31.3 µg/mL (≈ 66.9 µM); MIC [4]: 31.3 µg/mL (≈ 66.9 µM); antimicrobial activity against all the microorganisms (all the microorganisms): active against all the microorganisms; MIC [6]: 62.5 µg/mL (≈ 134 µM); MIC (Bacillus cereus 702 Roma): 62.5 µg/mL (≈ 134 µM); MIC [7]: 62.5 µg/mL (≈ 134 µM)
3 | O=C(CNc1ccc(N2CCOCC2)nc1)NNC(=S)Nc1ccccc1 [Compound 9, 2-{[(6-Morpholin-4-ylpyridin-3-yl)amino]acetyl}-N-phenylhydrazinecarbothioamide] | 8.07 ± 1.25 µM | 1000 µg/mL (≈ 2590 µM) | 1000 µg/mL (≈ 2590 µM) | 125 µg/mL (≈ 323 µM) | 171 to 172 °C | 
4 | O=C(CNc1ccc(N2CCOCC2)nc1)N/N=c1\sc(-c2ccc(Cl)cc2)cn1-c1ccccc1 [Compound 10] | 2.37 ± 0.19 µM | 1000 µg/mL (≈ 1920 µM) | 500 µg/mL (≈ 960 µM) |  | 168 to 169 °C | 
5 | Sc1nnc(CNc2ccc(N3CCOCC3)nc2)o1 [Compound 7, 5-{[(6-Morpholin-4-ylpyridin-3-yl)amino]methyl}-1,3,4-oxadiazole-2-thiol] | 7.01 ± 0.68 µM | 1000 µg/mL (≈ 3410 µM) | 500 µg/mL (≈ 1700 µM) |  | 221 to 222 °C | 
6 | NNC(=O)CNc1ccc(N2CCOCC2)nc1 [Compound 4, 2-[6-(Morpholin-4-yl)pyridin-3-ylamino]acetohydrazide] | 7.92 ± 1.43 µM | 1000 µg/mL (≈ 3980 µM) | 500 µg/mL (≈ 1990 µM) | 125 µg/mL (≈ 497 µM) | 175 to 177 °C | 
7 | c1ccc(Nc2nnc(CNc3ccc(N4CCOCC4)nc3)s2)cc1 [Compound 12] |  |  |  |  | 172 to 173 °C | 
8 | Sc1nnc(CNc2ccc(N3CCOCC3)nc2)n1-c1ccccc1 [Compound 11] |  |  |  |  | 165 to 166 °C | 
9 | O=C(CNc1ccc(N2CCOCC2)nc1)N/N=C1\SCC(=O)N1c1ccccc1 [Compound 13, 2-[(6-Morpholin-4-ylpyridin-3-yl)amino]-N’-(4-oxo-3-phenyl-1,3-thiazolidin-2-ylidene)acetohydrazide] | 4.46 ± 0.22 µM | 1000 µg/mL (≈ 2340 µM) | 500 µg/mL (≈ 1170 µM) |  | 201 to 202 °C | 
10 | CC1(C)S[C@@H]2[C@H](NC(=O)[C@H](N)c3ccccc3)C(=O)N2[C@H]1C(=O)O [Amp., Ampicillin, reference compound] |  |  |  |  |  | MIC [2]: 8 µg/mL (≈ 22.9 µM); MIC [3]: 2 µg/mL (≈ 5.72 µM); MIC [4]: 2 µg/mL (≈ 5.72 µM); MIC [6]: > 128 µg/mL; MIC (Bacillus cereus 702 Roma): < 1 µg/mL; MIC [7]: 32 µg/mL (≈ 91.6 µM)
11 | O=C(CNc1ccc(N2CCOCC2)nc1)N/N=C/C=C/c1ccccc1 [Compound 6, 2-{[6-(Morpholin-4-yl)pyridin-3-yl]amino}-N-(3-phenylallylidene)acetohydrazide] | 8.29 ± 2.3 µM | 1000 µg/mL (≈ 2740 µM) | 500 µg/mL (≈ 1370 µM) |  | 194 to 195 °C | 
12 | OC(Cn1cncn1)(Cn1cncn1)c1ccc(F)cc1F [Flu., Fluconazole, reference compound] |  |  |  |  |  | MIC (S. cerevisiae RSKK 251; RSKK251, S. cerevisiae RSKK 251, buffered Yeast Nitrogen Base pH 7.0, 18–24 h at 35 °C, read-out: minimal inhibition concentration, Sc): < 8 µg/mL; MIC ([5]; ATCC60193, Candida albicans ATCC 60193, buffered Yeast Nitrogen Base pH 7.0, 18–24 h at 35 °C, read-out: minimal inhibition concentration, Ca): < 8 µg/mL
13 | O=C(CNc1ccc(N2CCOCC2)nc1)N/N=C/c1ccc(Br)cc1 [Compound 5, N-(4-Bromobenzylidene)-2-[6-(morpholin-4-yl)pyridin-3-ylamino]acetohydrazide] | 6.87 ± 0.06 µM | 1000 µg/mL (≈ 2390 µM) | 1000 µg/mL (≈ 2390 µM) | 31.3 µg/mL (≈ 74.8 µM) | 163 to 164 °C | 
14 | CCOC(=O)CNc1ccc(N2CCOCC2)nc1 [Compound 3, Ethyl N-(6-morpholin-4-ylpyridin-3-yl)glycinate] | 13.2 ± 2.25 µM | 1000 µg/mL (≈ 3770 µM) | 1000 µg/mL (≈ 3770 µM) | 125 µg/mL (≈ 471 µM) | 83 to 84 °C | 
